Paper PMC11954145, “Antimicrobial and ADME properties of methoxylated, methylated and nitrated 2-hydroxynaphthalene-1 carboxanilides” (ADMET & DMPK, 2025)
Converted amounts (≈) assume the structure as drawn. “And” between values parts separate entries of the source, which are not always exact repeats. Equal entries are not always repeated. Where two headings read alike, the source gives them in different places.

Legend:
[1] = Lipophilicity determination by RP-HPLC (log k, log D); assay type: physicochemical; details: for log D6.5: RP-HPLC C18, MeOH 72 % / acetate-buffered saline pH 6.5; for log D7.4: RP-HPLC C18, MeOH 72 % / acetate-buffered saline pH 7.4; for log k (logarithm of the capacity factor): RP-HPLC C18, MeOH 72 % / water 28 %
Description: An HPLC system Agilent 1200 equipped with a DAD detector (Agilent, Santa Clara, CA, USA) was used. A chromatographic column Symmetry® C18 5 μm, 4.6×250 mm, part No. WAT054275 (Waters Corp., Milford, MA, USA) was used. The HPLC separation process was monitored and evaluated with EZChrom Elite software ver. 3.3.2 (Agilent). Isocratic elution by a mixture of MeOH p.a. (72 %) and H2O-HPLC Mili-Q grade (28 %) as a mobile phase was used for the determination of capacity factor k. Isocratic elution by a mixture of MeOH p.a. (72 %) and acetate-buffered saline (pH 7.4 and pH 6.5) (28 %) as a mobile phase was used for the determination of distribution coefficients expressed as D7.4 and D6.5. The total flow of the column was 1.0 mL min^-1, the injection volume was 20 μL, the column temperature was 40 °C, and the sample temperature was 10 °C. The detection wavelength of 210 nm was chosen. A KI methanolic solution was used to determine the dead times (tD). Retention times (tR) were measured in minutes. The capacity factors k were calculated according to the formula k = (tR–tD)/tD, where tR is the retention time of the solute, and tD is the dead time obtained using an unretained analyte. The distribution coefficients DpH were calculated according to the formula DpH = (tR–tD)/tD. Each experiment was repeated three times.
The capacity factor and distribution coefficients were measured by RP-HPLC on a C18 column with methanol as an organic modifier of the mobile phase. In addition to the experimental lipophilicities, predicted log P values were also calculated using ACD/Percepta, see Table 1. […] The values of σ(Ar) are found in a wide range from 0.01 to 1.36, so the compounds contain substituents with both electron-donating and slightly electron-withdrawing properties.

[2] = system: S. aureus ATCC 29213; assay: Antibacterial screening, broth microdilution MIC; assay type: cell-based; details: Staphylococcus aureus, ATCC29213; ATCC 29213, 24 h at 37 °C; read-out: MIC S. aureus
[3] = system: MRSA 63718; assay: Antibacterial screening, broth microdilution MIC; assay type: cell-based, methicillin-resistant S. aureus; details: Staphylococcus aureus, read-out: MIC MRSA 63718
[4] = system: MRSA SA 630; assay: Antibacterial screening, broth microdilution MIC; assay type: cell-based, methicillin-resistant S. aureus; details: Staphylococcus aureus, clinical isolate, 24 h at 37 °C, read-out: MIC MRSA SA 630
[5] = system: MRSA SA 3202; assay: Antibacterial screening, broth microdilution MIC; assay type: cell-based, methicillin-resistant S. aureus; details: Staphylococcus aureus, clinical isolate, 24 h at 37 °C, read-out: MIC MRSA SA 3202
[6] = system: Enterococcus faecalis ATCC 29212; assay: Antibacterial screening, broth microdilution MIC; assay type: cell-based; details: read-out: MIC E. faecalis
[7] = system: VRE 342B; assay: Antibacterial screening, broth microdilution MIC; assay type: cell-based, vancomycin-resistant E. faecalis; details: Enterococcus, vanA isolate, 24 h at 37 °C, read-out: MIC VRE 342B
[8] = system: VRE 725B; assay: Antibacterial screening, broth microdilution MIC; assay type: cell-based, vancomycin-resistant E. faecalis; details: Enterococcus, vanA isolate, 24 h at 37 °C, read-out: MIC VRE 725B
[9] = system: VRE 368; assay: Antibacterial screening, broth microdilution MIC; assay type: cell-based, vancomycin-resistant E. faecalis; details: Enterococcus, vanA isolate, 24 h at 37 °C, read-out: MIC VRE 368
[10] = system: E. coli ATCC 25922; assay: Antibacterial screening, broth microdilution MIC; assay type: cell-based; details: Escherichia coli, ATCC25922; ATCC 25922, 24 h at 37 °C
[11] = system: Mycobacterium tuberculosis ATCC 25177/H37Ra; assay: Antimycobacterial screening, broth dilution MIC (Alamar blue); assay type: cell-based; details: 336 h, H37Ra, 14 days at 37 °C, Alamar blue, read-out: MIC M. tuberculosis
Procedure: The evaluation of in vitro antimycobacterial activity of the compounds was performed against Mycobacterium tuberculosis ATCC 25177/H37Ra, Mycobacterium kansasii DSM 44162 and Mycobacterium smegmatis ATCC 700084.
The broth dilution micro-method in Middlebrook 7H9 medium (Difco, Lawrence, KS, USA) supplemented with ADC Enrichment (Difco) was used to determine the minimum inhibitory concentration (MIC) as previously described. […] The final concentrations of the evaluated compounds, ranging from 256 to 0.125 μg mL^-1, were obtained by twofold serial dilution of the stock solution in a microtiter plate with a sterile medium. Bacterial inocula were prepared by transferring colonies from culture to sterile water. The plate was inoculated by tested microorganisms. The final concentration of bacterial cells was 1.5×10^6 for M. tuberculosis and 10^5 cells in a microtiter plate for other mycobacteria. Isoniazid and rifampicin (Sigma) were used as reference antimycobacterial drugs. Drug-free controls, sterility controls, and controls consisting of medium and DMSO alone were included. The plates were incubated for a defined time at an appropriate temperature (3 days at 37 °C for M. smegmatis, and 14 days at 37 °C for M. tuberculosis and M. kansasii). […] The MICs against M. tuberculosis were evaluated by Alamar blue (Oxoid). After incubation, 10 % of Alamar blue was added to each well, and the plate was incubated for 24 h. The MIC values were assessed as the lowest concentration of the tested compounds, which prevented changing blue resazurin to pink resorufin. The experiments were repeated three times. The minimum inhibitory concentrations (MICs) were defined as the lowest concentration of the compound at which no visible bacterial growth was observed. The MIC value is routinely and widely used in bacterial assays and is a standard detection limit according to the CLSI [60].

[12] = system: Mycobacterium kansasii DSM 44162; assay: Antimycobacterial screening, broth dilution MIC; assay type: cell-based; details: DSM44162, 336 h, read-out: MIC M. kansasii
[13] = system: Mycobacterium smegmatis ATCC 700084; assay: Antimycobacterial screening, broth dilution MIC; assay type: cell-based; details: Mycolicibacterium smegmatis, ATCC700084, 72 h, read-out: MIC M. smegmatis
[14] = ATCC29212, ATCC 29212, 24 h at 37 °C
[15] = clinical isolate, 24 h at 37 °C

Structure (SMILES) | log D6.5 [1] | log D7.4 [1] | log k (logarithm of the capacity factor) [1] | MIC [2] [µM] | MIC ([3]; 24 h) [µM] | MIC [4] [µM] | MIC [5] [µM] | MIC [6, 14] [µM] | MIC [7] [µM] | MIC [8] [µM] | MIC [9] [µM] | MIC [10] [µM] | MIC [11] [µM] | MIC [12] [µM] | MIC [13] [µM] | MIC [3, 15] [µM] | MIC ([6]; ATCC29212, 24 h) [µM] | MIC ([13]; ATCC 700084, 3 days at 37 °C) [µM] | MIC ([12]; DSM 44162, 14 days at 37 °C) [µM]
COc1ccc(C)c(NC(=O)c2c(O)ccc3ccccc23)c1 [Compound 17, 2-Hydroxy-N-(5-methoxy-2-methylphenyl)naphthalene-1-carboxamide] | 0.1047 | 0.1113 | 0.0892 | 104 (≈ 32 µg/mL) | 416 (≈ 128 µg/mL) | 208 (≈ 63.9 µg/mL) | 208 (≈ 63.9 µg/mL) | 833 (≈ 256 µg/mL) | 833 (≈ 256 µg/mL) | 833 (≈ 256 µg/mL) | 833 (≈ 256 µg/mL) | 833 (≈ 256 µg/mL) | 416 (≈ 128 µg/mL) | 833 (≈ 256 µg/mL) | 416 (≈ 128 µg/mL) | – | – | – | –
COc1cccc(C)c1NC(=O)c1c(O)ccc2ccccc12 [Compound 16, 2-Hydroxy-N-(2-methoxy-6-methylphenyl)naphthalene-1-carboxamide] | 0.0284 | 0.0382 | 0.0124 | 833 (≈ 256 µg/mL) | – | 833 (≈ 256 µg/mL) | 833 (≈ 256 µg/mL) | – | 208 (≈ 63.9 µg/mL) | 833 (≈ 256 µg/mL) | 208 (≈ 63.9 µg/mL) | 833 (≈ 256 µg/mL) | 416 (≈ 128 µg/mL) | 833 (≈ 256 µg/mL) | 416 (≈ 128 µg/mL) | 833 (≈ 256 µg/mL) | 416 (≈ 128 µg/mL) | – | –
COc1ccc(Cl)c(NC(=O)c2c(O)ccc3ccccc23)c1 [Compound 18, N-(2-Chloro-5-methoxyphenyl)-2-hydroxynaphthalene-1-carboxamide] | 0.4607 | 0.4593 | 0.46 and 0.4635 | 48.8 (≈ 16 µg/mL) | – | 48.8 (≈ 16 µg/mL) | 97.6 (≈ 32 µg/mL) | 781 (≈ 256 µg/mL) | 781 (≈ 256 µg/mL) | 781 (≈ 256 µg/mL) | 781 (≈ 256 µg/mL) | 781 (≈ 256 µg/mL) | 391 (≈ 128 µg/mL) | 391 (≈ 128 µg/mL) | – | 195 (≈ 63.9 µg/mL) | – | 781 (≈ 256 µg/mL) | –
COc1ccc(OC)c(NC(=O)c2c(O)ccc3ccccc23)c1 [Compound 5, N-(2,5-Dimethoxyphenyl)-2-hydroxynaphthalene-1-carboxamide] | 0.3263 | 0.3310 | 0.3353 | 792 (≈ 256 µg/mL) | – | 792 (≈ 256 µg/mL) | 792 (≈ 256 µg/mL) | 792 (≈ 256 µg/mL) | 792 (≈ 256 µg/mL) | 792 (≈ 256 µg/mL) | 792 (≈ 256 µg/mL) | 792 (≈ 256 µg/mL) | 396 (≈ 128 µg/mL) | – | – | 792 (≈ 256 µg/mL) | – | 792 (≈ 256 µg/mL) | 792 (≈ 256 µg/mL)
